{"source": "patent US6534099B1", "about": "“Pesticidal compositions containing menthyl salicylate” (Ecosmart Technologies, Inc., priority 1993, dated 2003)", "key": {"[1]": {"system": "harvester", "assay": "Open glass petri dish exposure (Study E)", "type": "in vivo, harvester ants", "details": "mixed with soybean oil", "excerpt": "(§1) To address whether the efficacy of PEP will be increased with menthyl salicylate/soybean oil against harvester and black ants.\n(§2) glass petri dishes 100 mm were used in this study\n(§3) all treated dishes kept open during the time of exposure"}, "[2]": {"system": "German cockroaches", "assay": "Walk-across continuous exposure in treated jars (Study A and B)", "type": "in vivo", "protocol": "Experiment 1: To determine the lethal activity of menthyl salicylate against cockroaches. Menthyl salicylate was tested at 250 mg/jar against German cockroaches. Two replicates were used in this study. Three adult German cockroaches were used per replicate. Continuous exposure was performed with “walk-across”. All controls and treated roaches were under continuous observations for 6 hrs.\nExperiment 1. To determine whether menthyl salicylate acts as a synergist to eugenol and /or PEP blend. This experiment was also conducted against German cockroaches as described in Study A. Several blends of Eugenol/PEP were tested."}, "[3]": {"system": "black ants", "assay": "Open glass petri dish exposure (Study E)", "type": "in vivo", "details": "mixed with soybean oil", "excerpt": "as §1, §2, §3"}}, "data": [{"molecule": "CC1CCC(C(C)C)C(OC(=O)c2ccccc2O)C1", "note": "(stereo not drawn) [Menthyl salicylate, 2-hydroxybenzoic acid 5-methyl-2-(1-methylethyl)cyclohexyl ester]", "values": [{"measurement": "time to 100% M", "setting": "[1]", "result": "≤ 11", "unit": "min"}, {"measurement": "killing agent (conclusion in words)", "setting": "[2]; 250 mg/jar", "result": "good killing agent"}, {"measurement": "mortality (M)", "setting": "[2]; 250 mg/jar, 24 hr after continuous exposure", "result": 100, "unit": "%"}, {"measurement": "KD (knock-down)", "setting": "[2]; menthyl salicylate 250 mg/jar, 20 min after exposure", "result": 30, "unit": "%"}, {"measurement": "synergy with eugenol/PEP (in words)", "setting": "[2]; menthyl salicylate at 4-250 mg", "result": "synergizes the efficacy of eugenol/PEP"}, {"measurement": "time to 100% M", "setting": "[3]", "result": "≤ 40", "unit": "min"}]}]}
